Data on 1 molecule can be found in patent US8293481B2, “Biomarkers for chronic vascular dysfunction” (Mayo Foundation for Medical Education and Research, priority 2006, dated 2012).

The experiment deals with Sprague-Dawley rats, LAD ligation infarct model of CHF. As to the kind of experiment: Left ventricular function by transthoracic echocardiography (fractional shortening) in rat infarct model of CHF. Type of experiment: in vivo. The settings on record: 2 weeks post-infarction; captopril 2 g/l in drinking water; uninfarcted 56%, placebo 29%. An excerpt: After intubation, rats were ventilated continuously (room air) using a small animal ventilator (Model 683, Harvard Apparatus, Holliston, Mass.). A left lateral thoracotomy incision was made along the 5th intercostal space and after the pericardium was opened, the heart was exteriorized using a retention suture placed at the apex. The left anterior descending coronary artery (LAD) was ligated twice using 6-0 prolene suture (Ethicon, Cornelia, Ga.). After chest closure with running 3-0 vicryl suture (Ethicon), rats were put in a recovery chamber with a heating pad and warming light. The post-operative survival rate reached 80%. […] Rats were fed a standard diet of Teklad rodent feed (Harlan) ad libitum and kept on a 12:12 h light-dark cycle. Rats were sacrificed at designated time intervals of 2 weeks and 4 weeks after surgery. […] Cardiac function was estimated using fractional shortening (FS) obtained from the EDD and ESD in the parasternal long axis view and calculated as FS=((EDD-ESD)/EDD)×100%.

With `C[C@H](CS)C(=O)N1CCC[C@H]1C(=O)O` [Captopril, 1-[(2S)-3-mercapto-2-methylpropionyl]-L-proline], the “fractional shortening (FS)” value is 38%.
